Assay results taken from patent publication US10072026B2, “Crystalline form of 3-((1R,3s,5S)-3-((7-((5-methyl-1H-pyrazol-3-yl)amino)-1,6-naphthyridin-5-yl)amino)-8-azabicyclo[3.2.1]octan-8-yl)propanenitrile” (priority 2015, dated 2018).
Where two headings read alike, the source gives them in different places.

Columns and labels:
JAK1 = JAK1 (Homo sapiens (Human), UniProt P23458); experiment: LanthaScreen JAK biochemical assay (JAK1); details: for Ki: read-out: JAK 1 (pKi) (converted)
[1] = tested on: IL-4 induced STAT6 phosphorylation in THP-1 human monocytic cells; experiment: Cellular JAK potency assay, THP-1; details: for THP-1 IL4 pIC50: IL-4 induced STAT6 phosphorylation, THP-1 cells; for IC50: Homo sapiens, THP-1, read-out: THP-1 IL4 pIC50 (converted)
JAK2 = JAK2 (Homo sapiens (Human), UniProt O60674); experiment: LanthaScreen JAK biochemical assay (JAK2)
Chain of JAK2 (O60674 whole entry): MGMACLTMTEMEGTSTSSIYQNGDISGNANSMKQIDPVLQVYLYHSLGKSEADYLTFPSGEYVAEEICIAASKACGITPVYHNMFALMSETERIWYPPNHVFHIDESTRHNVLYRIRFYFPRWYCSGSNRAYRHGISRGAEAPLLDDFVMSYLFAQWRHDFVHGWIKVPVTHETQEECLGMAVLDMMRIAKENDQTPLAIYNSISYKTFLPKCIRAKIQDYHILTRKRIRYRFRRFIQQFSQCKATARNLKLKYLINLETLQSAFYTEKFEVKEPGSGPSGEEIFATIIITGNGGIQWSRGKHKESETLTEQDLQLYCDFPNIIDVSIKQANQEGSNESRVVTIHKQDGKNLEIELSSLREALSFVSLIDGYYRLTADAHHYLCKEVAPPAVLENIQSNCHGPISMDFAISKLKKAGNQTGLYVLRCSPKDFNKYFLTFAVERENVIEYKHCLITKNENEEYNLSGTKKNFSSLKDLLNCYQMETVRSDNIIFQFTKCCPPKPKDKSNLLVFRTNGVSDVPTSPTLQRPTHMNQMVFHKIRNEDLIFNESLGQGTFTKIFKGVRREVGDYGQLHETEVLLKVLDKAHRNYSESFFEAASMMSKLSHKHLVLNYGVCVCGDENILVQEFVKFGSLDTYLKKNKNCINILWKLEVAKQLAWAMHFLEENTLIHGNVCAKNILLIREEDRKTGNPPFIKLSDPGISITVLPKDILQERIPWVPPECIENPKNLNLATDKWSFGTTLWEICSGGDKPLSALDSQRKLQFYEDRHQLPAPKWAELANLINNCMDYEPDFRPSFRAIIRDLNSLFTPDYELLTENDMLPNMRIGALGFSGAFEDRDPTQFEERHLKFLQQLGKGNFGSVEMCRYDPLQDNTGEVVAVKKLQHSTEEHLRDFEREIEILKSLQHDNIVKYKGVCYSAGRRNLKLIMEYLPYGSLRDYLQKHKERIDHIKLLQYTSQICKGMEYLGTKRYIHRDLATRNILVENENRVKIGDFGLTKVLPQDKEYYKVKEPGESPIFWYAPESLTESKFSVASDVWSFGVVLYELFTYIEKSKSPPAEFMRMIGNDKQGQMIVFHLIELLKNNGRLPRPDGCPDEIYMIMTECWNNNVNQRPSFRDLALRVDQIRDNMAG

JAK3 = JAK3 (Homo sapiens (Human), UniProt P52333); experiment: LanthaScreen JAK biochemical assay (JAK3)
[2] = tested on: oxazolone-induced colitis; experiment: Mouse model of oxazolone-induced colitis; type: in vivo, BALB/C mice; details: mouse, PO, 1, 3, and/or 10 mg/kg BID
Procedure: Assay 7: Mouse Model of Oxazalone-Induced Colitis
Oxazolone-induced colitis is an experimental model that has a histological resemblance to human ulcerative colitis (Heller et al. Immunology, 2002, 17, 629-638). Adult BALB/C mice from Harlan were used in the assay. On day 1, animals were lightly anesthetized with isoflurane and the hairs between the shoulder were carefully removed before oxazolone (4%, 150 μL, 4:1 acetone:olive oil formulation) or vehicle solution was slowly applied for skin sensitization. Seven days after skin sensitization, the mice were fasted overnight, anesthetized with isoflurane inhalation, and a 1 mL syringe equipped with a 3.5-F catheter, filled with oxazolone solution, was inserted carefully about 4 cm into the colon of the mouse. Following insertion, 50 μL of the oxazolone solution (1%, 1:1 ethanol:water formulation) was injected very slowly (over 30 sec using an injection pump) into the colon. The catheter was removed and the mice were held vertically (head down) for 2 min to ensure that the entire oxazolone solution remained inside the colon. Drug treatment (PO, BID or TID) or vehicle was initiated a day prior to the oxazolone intrarectal (IR) challenge. Two-day post oxazolone intrarectal challenge, the Disease Activity Index (DAI) was assessed by treatment-blinded experimenters for each mouse according to the criteria score: stool consistency score (0, normal; 2, loose; 4, diarrhea), gross bleeding score (0, absence; 2, blood tinged; 4, presence), and weight loss score (0, none; 1, 1%-5%; 2, 5%-10%; 3, 10%-20%; 4, more than 20%); DAI=average of (stool consistency score+gross bleeding score+weight loss score).
Selected compounds of the invention were tested in the assay. Efficacy in the model is evidenced by a decrease in DAI score as compared with the score from vehicle treated animals.

[3] = tested on: IL-13 induced STAT6 phosphorylation in BEAS-2B human lung epithelial cells; experiment: AlphaScreen cellular JAK potency assay, BEAS-2B; details: for BEAS2B pIC50: IL-13 induced STAT6 phosphorylation, BEAS-2B cells; for IC50: Homo sapiens, BEAS-2B, read-out: BEAS2B pIC50 (converted)
Tyk2 = Tyk2 (Homo sapiens (Human), UniProt P29597); experiment: LanthaScreen JAK biochemical assay (Tyk2); details: for Ki: read-out: Tyk 2 (pKi) (converted)
Chain of Tyk2 (P29597 whole entry): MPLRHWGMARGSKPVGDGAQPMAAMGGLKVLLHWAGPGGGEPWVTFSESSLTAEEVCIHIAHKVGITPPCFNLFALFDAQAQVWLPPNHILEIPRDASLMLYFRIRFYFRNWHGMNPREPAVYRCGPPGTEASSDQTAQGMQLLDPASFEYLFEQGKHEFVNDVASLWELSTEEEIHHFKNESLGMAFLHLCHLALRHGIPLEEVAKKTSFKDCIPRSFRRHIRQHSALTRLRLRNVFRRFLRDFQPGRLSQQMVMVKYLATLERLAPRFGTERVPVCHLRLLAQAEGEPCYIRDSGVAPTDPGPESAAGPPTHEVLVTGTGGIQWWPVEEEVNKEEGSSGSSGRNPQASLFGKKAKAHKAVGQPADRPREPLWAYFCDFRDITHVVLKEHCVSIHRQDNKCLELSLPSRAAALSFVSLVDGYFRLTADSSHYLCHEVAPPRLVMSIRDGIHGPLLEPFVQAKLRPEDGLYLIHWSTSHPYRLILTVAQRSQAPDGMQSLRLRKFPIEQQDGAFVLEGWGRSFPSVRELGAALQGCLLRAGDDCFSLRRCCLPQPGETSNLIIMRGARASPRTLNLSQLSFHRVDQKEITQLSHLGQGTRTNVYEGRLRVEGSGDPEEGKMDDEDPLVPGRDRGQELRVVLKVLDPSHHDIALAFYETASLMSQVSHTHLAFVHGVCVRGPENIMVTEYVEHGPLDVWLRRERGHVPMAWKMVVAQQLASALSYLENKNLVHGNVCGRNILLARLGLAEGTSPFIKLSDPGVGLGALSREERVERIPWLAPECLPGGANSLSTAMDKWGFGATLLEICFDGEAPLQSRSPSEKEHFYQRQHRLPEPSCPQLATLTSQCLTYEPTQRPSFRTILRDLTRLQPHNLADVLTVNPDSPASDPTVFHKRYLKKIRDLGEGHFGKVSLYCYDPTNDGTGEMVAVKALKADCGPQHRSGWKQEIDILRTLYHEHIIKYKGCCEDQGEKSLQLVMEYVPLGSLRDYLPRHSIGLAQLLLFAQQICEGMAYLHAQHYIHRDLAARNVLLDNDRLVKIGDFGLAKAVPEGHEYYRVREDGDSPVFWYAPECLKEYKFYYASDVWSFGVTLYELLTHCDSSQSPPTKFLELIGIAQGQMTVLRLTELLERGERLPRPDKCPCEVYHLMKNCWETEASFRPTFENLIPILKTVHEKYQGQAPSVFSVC

[4] = read-out: JAK 2 (pKi) (converted)

Chain of JAK1 (P23458 whole entry): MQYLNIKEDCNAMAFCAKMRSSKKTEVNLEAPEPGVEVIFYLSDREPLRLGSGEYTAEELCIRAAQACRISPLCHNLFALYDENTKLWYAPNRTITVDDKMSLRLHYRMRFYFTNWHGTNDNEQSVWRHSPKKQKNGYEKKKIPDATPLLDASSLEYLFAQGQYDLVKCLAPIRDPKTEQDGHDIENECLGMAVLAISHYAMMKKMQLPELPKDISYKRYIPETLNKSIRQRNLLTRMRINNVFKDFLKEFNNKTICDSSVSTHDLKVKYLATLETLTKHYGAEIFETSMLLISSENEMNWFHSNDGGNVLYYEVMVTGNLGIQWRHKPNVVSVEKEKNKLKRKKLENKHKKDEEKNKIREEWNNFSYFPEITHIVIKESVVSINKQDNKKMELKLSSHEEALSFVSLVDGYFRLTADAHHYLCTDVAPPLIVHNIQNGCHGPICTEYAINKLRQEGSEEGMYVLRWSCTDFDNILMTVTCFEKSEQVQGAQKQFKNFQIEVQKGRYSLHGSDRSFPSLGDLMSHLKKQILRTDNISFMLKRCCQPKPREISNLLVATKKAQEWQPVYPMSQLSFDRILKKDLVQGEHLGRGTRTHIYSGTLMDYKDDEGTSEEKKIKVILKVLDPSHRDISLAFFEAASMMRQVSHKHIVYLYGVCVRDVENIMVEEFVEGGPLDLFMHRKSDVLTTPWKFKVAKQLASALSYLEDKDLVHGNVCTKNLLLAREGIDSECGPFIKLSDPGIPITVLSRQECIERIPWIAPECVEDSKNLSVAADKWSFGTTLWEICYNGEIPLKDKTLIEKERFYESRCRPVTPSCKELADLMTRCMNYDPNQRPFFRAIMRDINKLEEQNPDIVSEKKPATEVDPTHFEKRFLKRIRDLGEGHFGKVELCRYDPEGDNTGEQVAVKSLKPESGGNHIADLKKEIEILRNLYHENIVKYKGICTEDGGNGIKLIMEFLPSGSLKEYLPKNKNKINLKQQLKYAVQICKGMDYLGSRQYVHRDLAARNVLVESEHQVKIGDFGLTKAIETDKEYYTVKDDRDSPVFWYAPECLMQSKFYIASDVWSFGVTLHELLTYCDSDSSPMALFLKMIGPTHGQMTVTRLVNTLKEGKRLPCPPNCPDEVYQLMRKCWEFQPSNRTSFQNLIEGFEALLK

Compound | JAK 1 (pKi) (JAK1) | THP-1 IL4 pIC50 [1] | JAK 2 (pKi) (JAK2) | JAK 3 (pKi) (JAK3) | decrease in DAI score as compared with vehicle treated animals [2] | BEAS2B pIC50 [3] | Tyk 2 (pKi) (Tyk2) | IC50 [3] | Ki (JAK1) | IC50 [1] | Ki (JAK2; [4]) | Ki (JAK2) | Ki (Tyk2)
Cc1cc(Nc2cc3ncccc3c(N[C@@H]3C[C@H]4CCC[C@@H](C3)N4CC(=O)N(C)C)n2)n[nH]1 [Example 1-38] | B (B represents a pKi value between 9 and 10 (Ki between 1 nM and 0.1 nM)) | B (B represents a pEC50 value between 6.7 and 7.5 (EC50 between 200 nM and 32 nM)) | B (B represents a pKi value between 9 and 10 (Ki between 1 nM and 0.1 nM)) | C (C represents a pKi value between 7 and 9 (Ki between 100 nM and 1 nM)) | statistically significant decrease | – | – | – | – | – | – | – | –
CCC(C)C(=O)N1C2CCC1CC(Nc1nc(Nc3cc(C)[nH]n3)cc3ncccc13)C2 (centres unmarked) [Example 2-6] | B (B represents a pKi value between 9 and 10 (Ki between 1 nM and 0.1 nM)) | B (B represents a pEC50 value between 6.7 and 7.5 (EC50 between 200 nM and 32 nM)) | B (B represents a pKi value between 9 and 10 (Ki between 1 nM and 0.1 nM)) | C (C represents a pKi value between 7 and 9 (Ki between 100 nM and 1 nM)) | did not exhibit a statistically significant decrease | A (A represents a pEC50 value≥7.5 (EC50≤32 nM)) | C (C represents a pKi value between 7 and 9 (Ki between 100 nM and 1 nM)) | – | – | – | – | – | –
Cc1cc(Nc2cc3ncccc3c(NC3CC4CCCC(C3)N4C(=O)C(C)O)n2)n[nH]1 (centres unmarked) [Example 2-16] | B (B represents a pKi value between 9 and 10 (Ki between 1 nM and 0.1 nM)) | B (B represents a pEC50 value between 6.7 and 7.5 (EC50 between 200 nM and 32 nM)) | B (B represents a pKi value between 9 and 10 (Ki between 1 nM and 0.1 nM)) | C (C represents a pKi value between 7 and 9 (Ki between 100 nM and 1 nM)) | did not exhibit a statistically significant decrease | B (B represents a pEC50 value between 6.7 and 7.5 (EC50 between 200 nM and 32 nM)) | B (B represents a pKi value between 9 and 10 (Ki between 1 nM and 0.1 nM)) | – | – | – | – | – | –
CCOCC(=O)N1[C@@H]2CCC[C@H]1C[C@H](Nc1nc(Nc3cc(C)[nH]n3)cc3ncccc13)C2 [Example 2-17] | B (B represents a pKi value between 9 and 10 (Ki between 1 nM and 0.1 nM)) | B (B represents a pEC50 value between 6.7 and 7.5 (EC50 between 200 nM and 32 nM)) | B (B represents a pKi value between 9 and 10 (Ki between 1 nM and 0.1 nM)) | C (C represents a pKi value between 7 and 9 (Ki between 100 nM and 1 nM)) | did not exhibit a statistically significant decrease | A (A represents a pEC50 value≥7.5 (EC50≤32 nM)) | – | – | – | – | – | – | –
Cc1cc(Nc2cc3ncccc3c(N[C@@H]3C[C@H]4CCC[C@@H](C3)N4C(=O)Cc3ccccc3)n2)n[nH]1 [Example 2-24] | B (B represents a pKi value between 9 and 10 (Ki between 1 nM and 0.1 nM)) | A (A represents a pEC50 value≥7.5 (EC50≤32 nM)) | B (B represents a pKi value between 9 and 10 (Ki between 1 nM and 0.1 nM)) | – | did not exhibit a statistically significant decrease | A (A represents a pEC50 value≥7.5 (EC50≤32 nM)) | – | – | – | – | – | – | –
Cc1cc(Nc2cc3ncccc3c(N[C@@H]3C[C@H]4CC[C@@H](C3)N4S(=O)(=O)c3cccnc3)n2)n[nH]1 [Example 3, N^7-(5-methyl-1H-pyrazol-3-yl)-N^5-((1R,3s,5S)-8-(pyridin-3-ylsulfonyl)-8-azabicyclo[3.2.1]octan-3-yl)-1,6-naphthyridine-5,7-diamine] | – | – | – | – | statistically significant decrease | – | – | < 31.6 nM | 0.1 to 1 nM | 31.6 to 200 nM | 0.1 to 1 nM | – | –
Cc1cc(Nc2cc3ncccc3c(N[C@@H]3C[C@H]4CC[C@@H](C3)N4S(=O)(=O)C3CC3)n2)n[nH]1 [Example 4-4] | – | – | – | – | did not exhibit a statistically significant decrease | – | – | < 31.6 nM | 0.1 to 1 nM | < 31.6 nM | – | 0.1 to 1 nM | –
Cc1cc(Nc2cc3ncccc3c(N[C@@H]3C[C@H]4CCC[C@@H](C3)N4S(=O)(=O)C3CC3)n2)n[nH]1 [Example 4-18] | A (A represents a pKi value≥10 (Ki≤0.1 nM)) | A (A represents a pEC50 value≥7.5 (EC50≤32 nM)) | – | – | did not exhibit a statistically significant decrease | A (A represents a pEC50 value≥7.5 (EC50≤32 nM)) | – | – | – | – | – | – | –
COCCS(=O)(=O)N1[C@@H]2CCC[C@H]1C[C@H](Nc1nc(Nc3cc(C)[nH]n3)cc3ncccc13)C2 [Example 4-19] | – | A (A represents a pEC50 value≥7.5 (EC50≤32 nM)) | – | C (C represents a pKi value between 7 and 9 (Ki between 100 nM and 1 nM)) | did not exhibit a statistically significant decrease | A (A represents a pEC50 value≥7.5 (EC50≤32 nM)) | B (B represents a pKi value between 9 and 10 (Ki between 1 nM and 0.1 nM)) | – | – | – | – | – | –
Cc1cc(Nc2cc3nc(CO)ccc3c(N[C@@H]3C[C@H]4CC[C@@H](C3)N4CCC#N)n2)n[nH]1 [Example 5-11] | – | A (A represents a pEC50 value≥7.5 (EC50≤32 nM)) | A (A represents a pKi value≥10 (Ki≤0.1 nM)) | – | did not exhibit a statistically significant decrease | B (B represents a pEC50 value between 6.7 and 7.5 (EC50 between 200 nM and 32 nM)) | – | – | – | – | – | – | –
CCS(=O)(=O)N1[C@@H]2CC[C@H]1C[C@H](Nc1nc(Nc3cc(C)[nH]n3)cc3ncccc13)C2 [Example 7, N^5-((1R,3s,5S)-8-(ethylsulfonyl)-8-azabicyclo[3.2.1]octan-3-yl)-N^7-(5-methyl-1H-pyrazol-3-yl)-1,6-naphthyridine-5,7-diamine] | – | – | – | – | did not exhibit a statistically significant decrease | – | – | < 31.6 nM | – | < 31.6 nM | 0.1 to 1 nM | – | 0.1 to 1 nM
Cc1cc(Nc2cc3ncccc3c(N[C@@H]3C[C@H]4CCC[C@@H](C3)N4S(=O)(=O)c3ccccc3)n2)n[nH]1 [Example 9, N^7-(5-methyl-1H-pyrazol-3-yl)-N^5-((1R,3s,5S)-9-(phenylsulfonyl)-9-azabicyclo[3.3.1]nonan-3-yl)-1,6-naphthyridine-5,7-diamine] | – | – | – | – | did not exhibit a statistically significant decrease | – | – | < 31.6 nM | 0.1 to 1 nM | < 31.6 nM | 0.1 to 1 nM | – | 0.1 to 1 nM
Cc1cc(Nc2cc3ncccc3c(N[C@@H]3C[C@H]4CC[C@@H](C3)N4S(=O)(=O)N3CC(C#N)C3)n2)n[nH]1 [Example 13, 1-(((1R,3s,5S)-3-((7-((5-methyl-1H-pyrazol-3-yl)amino)-1,6-naphthyridin-5-yl)amino)-8-azabicyclo[3.2.1]octan-8-yl)sulfonyl)azetidine-3-carbonitrile] | – | – | – | – | did not exhibit a statistically significant decrease | – | – | 31.6 to 200 nM | – | 31.6 to 200 nM | – | – | 0.1 to 1 nM
